In ChEMBL document CHEMBL5543119, “Discovery of Novel 11-Membered Templates as Squalene Synthase Inhibitors” (J Med Chem, 2024) one finds Activity and IC50 data, which are given here for 51 molecules.

In one assay the test system is Hamster. Nature of the assay: Lipid lowering effect in hamster assessed as reduction in total cholesterol level in serum at 100 mg/kg, po bid administered at 9 a.m and 4 p.m for 14 days relative to control. It counts as functional, Cricetinae. Further details: scale not given: the % may be the effect or the level left. Particulars: time 14 day.
A short description of assay [1]: Effect on triglyceride level in hamster assessed as increase in triglyceride level in serum at 100 mg/kg, po bid administered at 9 a.m and 4 p.m for 14 days relative to control. In kind it is functional, Cricetinae. Particulars: time 14 day.
Assay [2] deals with marmosets. Put plainly: Lipid lowering effect in chow diet fed marmosets assessed as reduction in total cholesterol level in serum at 10 mg/kg, po qd administered once a day to 9 to 10 a.m for 7 days relative to control. On the set-up: scale not given: the % may be the effect or the level left. Particulars: time 7 day. It counts as functional, Callitrichinae sp.
The subject of assay [3] is marmosets. Nature of the assay: Lipid lowering effect in chow diet fed marmosets assessed as reduction in non-HDL level in serum at 10 mg/kg, po qd administered once a day to 9 to 10 a.m for 7 days relative to control. Particulars: time 7 day. It counts as functional, Callitrichinae sp. On the set-up: scale not given: the % may be the effect or the level left.
For assay [4], the system named is marmosets. Put plainly: Lipid lowering effect in chow diet fed marmosets assessed as reduction in HDL level in serum at 10 mg/kg, po qd administered once a day to 9 to 10 a.m for 7 days relative to control. In kind it is functional, Callitrichinae sp. Further details: scale not given: the % may be the effect or the level left. Particulars: time 7 day.
For assay [5], the system named is marmosets. Put plainly: Lipid lowering effect in chow diet fed marmosets assessed as reduction in triglyceride level in serum at 10 mg/kg, po qd administered once a day to 9 to 10 a.m for 7 days relative to control. In kind it is functional, Callitrichinae sp. Further details: scale not given: the % may be the effect or the level left. The settings on record: time 7 day.

For a further assay, the target named is T1, Squalene synthase (Rattus norvegicus, UniProt Q02769).
T1 sequence (Q02769 whole entry): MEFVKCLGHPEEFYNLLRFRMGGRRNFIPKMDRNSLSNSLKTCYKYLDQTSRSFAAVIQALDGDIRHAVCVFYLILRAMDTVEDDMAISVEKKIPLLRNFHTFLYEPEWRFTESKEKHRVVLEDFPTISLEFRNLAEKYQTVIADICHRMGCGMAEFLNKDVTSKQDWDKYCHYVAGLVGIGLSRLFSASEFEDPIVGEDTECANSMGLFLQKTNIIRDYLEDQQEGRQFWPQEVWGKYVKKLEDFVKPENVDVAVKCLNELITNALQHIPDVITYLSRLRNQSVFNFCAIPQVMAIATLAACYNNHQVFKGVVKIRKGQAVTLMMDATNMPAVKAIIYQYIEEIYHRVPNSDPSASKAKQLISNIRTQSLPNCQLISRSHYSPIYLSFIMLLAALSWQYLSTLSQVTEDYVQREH
Nature of the assay: Inhibition of squalene synthase in rat liver microsomes using [3H] farnesyl pyrophosphate as substrate preincubated for 10 mins followed by substrate addition and measured after 30 mins by liquid scintillation counter analysis. Further details: species or system Microsome. On the technique in general: Microsomes from liver hold many membrane-bound enzymes, among them those of drug oxidation.

For the next assay, the system named is Hepatocyte. Nature of the assay: Inhibition of cholesterol biosynthesis in rat hepatocytes preincubated for 1 hr followed by [14C]mevalonolactone addition and measured after 1 hr by liquid scintillation counter analysis. It counts as functional, cell-based.

A value given as a limit tells only on which side of the number the result lay.

Consider `COc1cccc([C@H]2O[C@H](CC(=O)N3CCC(CC(=O)O)CC3)C(=O)N(CC(C)(C)CO)c3ccc(Cl)cc32)c1OC`, for which the Activity with Hamster is 2%; in assay [1] it was 8%; in the assay with marmosets [2] it was 24%; with marmosets [3] it was 34%; in the assay on marmosets [4], 3%; in the assay with marmosets [5], 38%.

For orientation: IC50 means the concentration at which inhibition is half-maximal. In turn, `COc1ccccc1C1OCCCN(C(=O)C(=O)O)CC(=O)N(CC(C)(C)C)c2ccc(Cl)cc21` (centres undefined) returned an IC50 at Squalene synthase of no less than 0.26 µM.

The molecule `COc1ccccc1C1OCCN([C@H]2CC[C@@H](C(=O)O)CC2)C(=O)CC(=O)N(CC(C)(C)C)c2ccc(Cl)cc21` (some centres undefined) showed a 50% inhibitory concentration (IC50) on Squalene synthase of 0.45 µM. The same measure, in the same setting: then `COc1ccccc1C1OCCN([C@H]2CC[C@H](C(=O)O)CC2)C(=O)CC(=O)N(CC(C)(C)C)c2ccc(Cl)cc21` (some centres undefined), with 0.023 µM. On the same count and under the same terms, then `CCOC(=O)C1CCC(N2CCOC(c3ccccc3OC)c3cc(Cl)ccc3N(CC(C)(C)C)C(=O)CC2=O)CC1` (centres undefined), with 0.03 µM; and `CCOC(=O)C1CCN(C(=O)CN2CC(=O)N(CC(C)(C)C)c3ccc(Cl)cc3C(c3ccccc3OC)OCCC2=O)CC1` (centres undefined), with greater than 0.6 µM; and `COc1ccccc1C1OCCN([C@H]2CCC[C@H](C(=O)O)C2)C(=O)CC(=O)N(CC(C)(C)C)c2ccc(Cl)cc21` (some centres undefined), with greater than 0.6 µM.

On Squalene synthase, `CCOC(=O)C1CCCN(C(=O)N2CCCOC(c3ccccc3OC)c3cc(Cl)ccc3N(CC(C)(C)C)C(=O)C2)C1` (centres undefined) came in with an IC50 greater than 0.6 µM. The same measure, in the same setting: then `COc1ccccc1C1OCCN(CC(=O)N2CCC(C(=O)O)CC2)C(=O)CC(=O)N(CC(C)(C)C)c2ccc(Cl)cc21` (centres undefined), with greater than 0.6 µM. `CCOC(=O)[C@H]1CC[C@H](N2CCOC(c3ccccc3OC)c3cc(Cl)ccc3N(CC(C)(C)C)C(=O)CC2=O)CC1` (some centres undefined) returned a half-maximal inhibitory concentration (IC50) against Squalene synthase of 0.016 µM. On the same count and under the same terms, then `CCOC(=O)[C@@H]1CCC[C@H](N2CCOC(c3ccccc3OC)c3cc(Cl)ccc3N(CC(C)(C)C)C(=O)CC2=O)C1` (some centres undefined), with 0.017 µM. Take `COc1ccccc1[C@@H]1OCCCN(C(=O)N2CCC(CC(=O)O)CC2)CC(=O)N(CC(C)(C)C)c2ccc(Cl)cc21`: the IC50 against Squalene synthase is 1.4 µM; in the assay on Hepatocyte, greater than 3 µM.

On to `CCOC(=O)C1CCCN(C(=O)CN2CCOC(c3ccccc3OC)c3cc(Cl)ccc3N(CC(C)(C)C)C(=O)CC2=O)C1` (centres undefined), for which the IC50 at Squalene synthase came out at 0.064 µM. Same read-out and setting: with `COc1ccccc1C1OCCN(CC(=O)N2CCCC(C(=O)O)C2)C(=O)CC(=O)N(CC(C)(C)C)c2ccc(Cl)cc21` (centres undefined) the figure was greater than 0.6 µM; with `COc1ccccc1C1OCCC(=O)N(CC(=O)O)CC(=O)N(CC(C)(C)C)c2ccc(Cl)cc21` (centres undefined), greater than 0.6 µM. The same measure, in the same setting: then `COc1ccccc1C1OCCNCCC(=O)N(CC(C)(C)C)c2ccc(Cl)cc21` (centres undefined), with greater than 0.6 µM; and `COc1ccccc1C1OCCN([C@@H]2CCC[C@H](C(=O)O)C2)C(=O)CC(=O)N(CC(C)(C)C)c2ccc(Cl)cc21` (some centres undefined), with 0.0047 µM; and `CCOC(=O)C1CCCN(C(=O)CN2CC(=O)N(CC(C)(C)C)c3ccc(Cl)cc3C(c3ccccc3OC)OCCC2=O)C1` (centres undefined), with greater than 0.6 µM. On the same count and under the same terms, with `COc1ccccc1C1OCCC(=O)N(CC(=O)N2CCCC(C(=O)O)C2)CC(=O)N(CC(C)(C)C)c2ccc(Cl)cc21` (centres undefined) the figure was greater than 0.6 µM.

With `COc1ccccc1C1OCCN(C(=O)C(=O)O)CCC(=O)N(CC(C)(C)C)c2ccc(Cl)cc21` (centres undefined), at Squalene synthase, the half-inhibitory concentration (IC50) is greater than 0.6 µM. The same measure, in the same setting: then `COc1ccccc1C1OCCCNCC(=O)N(CC(C)(C)C)c2ccc(Cl)cc21` (centres undefined), with greater than 0.6 µM. `CCOC(=O)[C@@H]1CCC[C@@H](N2CCOC(c3ccccc3OC)c3cc(Cl)ccc3N(CC(C)(C)C)C(=O)CC2=O)C1` (some centres undefined) registered a concentration for half-maximal inhibition (IC50) on Squalene synthase of 0.019 µM.

On to `COc1ccccc1C1OCCCN(C(=O)N2CCC(C(=O)O)CC2)CC(=O)N(CC(C)(C)C)c2ccc(Cl)cc21` (centres undefined), for which the midpoint of inhibition at Squalene synthase, the IC50, lay at 0.012 µM. As to `COc1ccccc1C1OCCN([C@@H]2CCC[C@@H](C(=O)O)C2)C(=O)CC(=O)N(CC(C)(C)C)c2ccc(Cl)cc21` (some centres undefined), half-maximal inhibition against Squalene synthase (IC50) was put at 0.004 µM.

Regarding `COc1ccccc1C1OCCN(CC(=O)O)C(=O)CC(=O)N(CC(C)(C)C)c2ccc(Cl)cc21` (centres undefined), on Squalene synthase, the concentration for half-maximal inhibition (IC50) was greater than 0.6 µM.

Regarding `COc1ccccc1C1OCCN(C2CCCN(C(=O)C(=O)O)C2)C(=O)CC(=O)N(CC(C)(C)C)c2ccc(Cl)cc21` (centres undefined), the IC50 against Squalene synthase amounted to 0.021 µM. Still for that read-out and setting: with `COc1ccccc1C1OCCN(C(=O)C(F)(F)F)CCC(=O)N(CC(C)(C)C)c2ccc(Cl)cc21` (centres undefined) the figure was greater than 0.6 µM. With `CCOC(=O)C(=O)N1CCCOC(c2ccccc2OC)c2cc(Cl)ccc2N(CC(C)(C)C)C(=O)C1` (centres undefined), the IC50 against Squalene synthase was greater than 0.6 µM.

`CCOC(=O)C(=O)N1CCC(N2CCOC(c3ccccc3OC)c3cc(Cl)ccc3N(CC(C)(C)C)C(=O)CC2=O)CC1` (centres undefined) registered a 50% inhibitory concentration (IC50) on Squalene synthase of 0.025 µM. The molecule `COc1ccccc1C1OCCCN(C(=O)N2CCCC(C(=O)O)C2)CC(=O)N(CC(C)(C)C)c2ccc(Cl)cc21` (centres undefined) returned a half-maximal inhibitory concentration (IC50) against Squalene synthase of 0.17 µM. In the case of `COc1ccccc1C1OCCCN(S(=O)(=O)c2ccccc2[N+](=O)[O-])CC(=O)N(CC(C)(C)C)c2ccc(Cl)cc21` (centres undefined), the IC50 on Squalene synthase is greater than 0.6 µM. The same measure, in the same setting: then `CCOC(=O)C1CCN(C(=O)N2CCCOC(c3ccccc3OC)c3cc(Cl)ccc3N(CC(C)(C)C)C(=O)C2)CC1` (centres undefined), with 0.047 µM; and `COc1ccccc1C1OCC(=O)NCCC(=O)N(CC(C)(C)C)c2ccc(Cl)cc21` (centres undefined), with greater than 0.6 µM; and `CCOC(=O)[C@H]1CCC[C@@H](N2CCOC(c3ccccc3OC)c3cc(Cl)ccc3N(CC(C)(C)C)C(=O)CC2=O)C1` (some centres undefined), with 0.018 µM.

In the case of `CCOC(=O)C1CCN(C(=O)CN2CCOC(c3ccccc3OC)c3cc(Cl)ccc3N(CC(C)(C)C)C(=O)CC2=O)CC1` (centres undefined), the IC50 at Squalene synthase was 0.39 µM. On the same count and under the same terms, with `COc1ccccc1C1OCCN(C2CCC(C(=O)O)CC2)C(=O)CC(=O)N(CC(C)(C)C)c2ccc(Cl)cc21` (centres undefined) the figure was 0.046 µM; with `CCOC(=O)[C@H]1CC[C@@H](N2CCOC(c3ccccc3OC)c3cc(Cl)ccc3N(CC(C)(C)C)C(=O)CC2=O)CC1` (some centres undefined), 0.026 µM. On Squalene synthase, `COc1ccccc1C1OCCC(=O)N(CC(=O)N2CCC(C(=O)O)CC2)CC(=O)N(CC(C)(C)C)c2ccc(Cl)cc21` (centres undefined) returned an IC50 greater than 0.6 µM.

For the molecule `CCOC(=O)C(=O)N1CCCC(N2CCOC(c3ccccc3OC)c3cc(Cl)ccc3N(CC(C)(C)C)C(=O)CC2=O)C1` (centres undefined), the midpoint of inhibition against Squalene synthase, the IC50, lay at 0.014 µM. On the same count and under the same terms, with `CCOC(=O)[C@H]1CCC[C@H](N2CCOC(c3ccccc3OC)c3cc(Cl)ccc3N(CC(C)(C)C)C(=O)CC2=O)C1` (some centres undefined) the figure was 0.054 µM; with `COc1ccccc1C1OCC(=O)N(CC(=O)O)CCC(=O)N(CC(C)(C)C)c2ccc(Cl)cc21` (centres undefined), greater than 0.6 µM; with `CCOC(=O)CC1CCN(C(=O)N2CCCOC(c3ccccc3OC)c3cc(Cl)ccc3N(CC(C)(C)C)C(=O)C2)CC1` (centres undefined), 0.02 µM. Take `COc1ccccc1[C@H]1OCCCN(C(=O)N2CCC(CC(=O)O)CC2)CC(=O)N(CC(C)(C)C)c2ccc(Cl)cc21`: the IC50 came out at 0.0044 µM against Squalene synthase and 0.12 µM in the assay on Hepatocyte. The matching figures for `COc1ccccc1[C@@H](O)c1cc(Cl)ccc1N(CC(C)(C)C)C(=O)CCC(=O)N1CCC[C@H](C(=O)O)C1`: 0.0006 µM and 0.12 µM. As for `COc1ccccc1C1OCCN(C2CCN(C(=O)C(=O)O)CC2)C(=O)CC(=O)N(CC(C)(C)C)c2ccc(Cl)cc21` (centres undefined), the IC50 against Squalene synthase was greater than 0.6 µM. On Squalene synthase, `CCOC(=O)CN1CCOC(c2ccccc2OC)c2cc(Cl)ccc2N(CC(C)(C)C)C(=O)CC1=O` (centres undefined) yielded a half-inhibitory concentration (IC50) of 0.14 µM.

On Squalene synthase, `CCOC(=O)CN1CC(=O)N(CC(C)(C)C)c2ccc(Cl)cc2C(c2ccccc2OC)OCCC1=O` (centres undefined) gave an IC50 greater than 0.6 µM. Same read-out and setting: with `CCOC(=O)CN1CCC(=O)N(CC(C)(C)C)c2ccc(Cl)cc2C(c2ccccc2OC)OCC1=O` (centres undefined) the figure was greater than 0.6 µM; with `COc1ccccc1C1OCCN([C@H]2CCC[C@@H](C(=O)O)C2)C(=O)CC(=O)N(CC(C)(C)C)c2ccc(Cl)cc21` (some centres undefined), greater than 0.6 µM; with `COc1ccccc1C1OCCCN(C(=O)N2CCC(CC(=O)O)CC2)CC(=O)N(CC(C)(C)C)c2ccc(Cl)cc21` (centres undefined), 0.007 µM. On the same count and under the same terms, with `CCOC(=O)C(=O)N1CCOC(c2ccccc2OC)c2cc(Cl)ccc2N(CC(C)(C)C)C(=O)CC1` (centres undefined) the figure was greater than 0.6 µM.
